Measurements reported in patent publication US20190062362A1, “METHOD FOR OBTAINING SURFACTANT COMPOSITIONS MADE FROM ALKYL-L-GULURONAMIDES” (ÉCOLE NATIONALE SUPÉRIEURE DE CHIMIE, priority 2015, published 2019).

Key:
Assay in all cases: Protocol A: agar deposit test, clarification zone
Format in all cases: cell-based
Pseudomonas aeruginosa = conditions: P. aeruginosa; for inhibitory activity on growth (in words): text summary of protocol A
Description: (§1) The culture medium used was a mixture of 21 g/L of Muller-Hinton broth and 10 g/L of agar in water. This mixture was stirred and then left to boil. Next, a step of autoclaving of this mixture, for 30 minutes, was desired in this embodiment so as to sterilize it before any manipulation. This culture medium was poured hot into Petri dishes and then left to cool.
(§2) 5 mg of each modified sugar were dissolved in 1 mL of DMSO. Twofold serial dilution with DMSO was then performed using the stock solution, so as to obtain concentrations of 2.5 g/L, 1.25 g/L, 0.625 g/L and 0.3125 g/L.
(§3) The bacterial strains used were Pseudomonas aeruginosa, Escherichia Coli, Enterococcus faecium and Staphylococcus aureus, and also the fungal strain Candida albicans. 10^6 bacteria were taken and then transferred into 0.9% NaCl solution. Each Petri dish, containing Muller-Hinton medium, was flooded with a different bacterial suspension.
(§4) After allowing the bacterial suspensions to dry on the agar, 10 μL of each test solution, and at various concentrations, were deposited on the surface of the agar flooded with the bacterial suspension. 10 μL of DMSO were placed in each Petri dish as a negative control.
(§5) The positive controls used were disks soaked with ampicillin for Escherichia coli and Enterococcus faecium, ceftazidime disks for Pseudomonas aeruginosa and vancomycin disks for Staphylococcus aureus.
(§6) After drying, the Petri dishes were finally incubated at 37° C. in an oven, for 24 hours. The antibacterial activity was evaluated by measuring the clarification zone in millimeters around the point of deposition of the various test solutions.

Enterococcus faecium = conditions: E. faecium; antibiotic disk
Description: as §1, §2, §3, §4, §5, §6

Escherichia Coli = conditions: E. coli; for inhibitory activity on growth (in words): text summary of protocol A
Description: as §1, §2, §3, §4, §5, §6

Staphylococcus aureus = conditions: S. aureus
Description: as §1, §2, §3, §4, §5, §6

Candida albicans = conditions: C. albicans; text summary of protocol A
Description: as §1, §2, §3
After allowing the bacterial suspensions to dry on the agar, 10 μL of each test solution, and at various concentrations, were deposited on the surface of the agar flooded with the bacterial suspension. […]
as §6

CC(C)(O/N=C(\C(=O)N[C@@H]1C(=O)N2C(C(=O)[O-])=C(C[n+]3ccccc3)CS[C@H]12)c1csc(N)n1)C(=O)O [Ceftazidime, reference compound]
clarification zone, positive control (Pseudomonas aeruginosa; antibiotic disk): 28 mm

CC1(C)S[C@@H]2[C@H](NC(=O)[C@H](N)c3ccccc3)C(=O)N2[C@H]1C(=O)O [Ampicillin, reference compound]
clarification zone, positive control (Enterococcus faecium): 26 mm | clarification zone, positive control (Escherichia Coli; antibiotic disk): 22 mm

N-(18 octadecyl)-n-butyl L-guluronamide
inhibitory activity on growth (in words) (Escherichia Coli): neither the N-(12 dodecyl)-n-butyl L-guluronamide nor the N-(18 octadecyl)-n-butyl L-guluronamide (whether in furanose or pyranose form) showed any inhibitory activity | inhibitory activity on growth (in words) (Pseudomonas aeruginosa): neither the N-(12 dodecyl)-n-butyl L-guluronamide nor the N-(18 octadecyl)-n-butyl L-guluronamide (whether in furanose or pyranose form) showed any inhibitory activity | inhibitory effect (in words) (Staphylococcus aureus; text summary of protocol A): no inhibitory effect | inhibitory effect (in words) (Candida albicans): no inhibitory effect

CN[C@H](CC(C)C)C(=O)N[C@H]1C(=O)N[C@@H](CC(N)=O)C(=O)N[C@H]2C(=O)N[C@H]3C(=O)N[C@H](C(=O)N[C@H](C(=O)O)c4cc(O)cc(O)c4-c4cc3ccc4O)[C@H](O)c3ccc(c(Cl)c3)Oc3cc2cc(c3O[C@@H]2O[C@H](CO)[C@@H](O)[C@H](O)[C@H]2O[C@H]2C[C@](C)(N)[C@H](O)[C@H](C)O2)Oc2ccc(cc2Cl)[C@H]1O [Vancomycin, reference compound]
clarification zone, positive control (Staphylococcus aureus; antibiotic disk): 19 mm

N-(12 dodecyl)-n-butyl L-guluronamide
inhibitory activity on growth (in words) (Escherichia Coli): neither the N-(12 dodecyl)-n-butyl L-guluronamide nor the N-(18 octadecyl)-n-butyl L-guluronamide (whether in furanose or pyranose form) showed any inhibitory activity | inhibitory activity on growth (in words) (Pseudomonas aeruginosa): neither the N-(12 dodecyl)-n-butyl L-guluronamide nor the N-(18 octadecyl)-n-butyl L-guluronamide (whether in furanose or pyranose form) showed any inhibitory activity
